PubChem BioAssay (NCI)
Where “and” joins values, the source holds several entries; their conditions need not be identical. Identical values can stand only once.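 Briefly, cells in 96-well plates were exposed to five compound concentrations for 48 h, and endpoints were estimated by linear interpolation. The concentration for 50% growth inhibition is given as GI50. Definition used: TGI = concentration required for complete inhibition of growth.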

Columns and labels:
Assay in all cases: NCI tumour cell line growth inhibition, 48 h
SNB-78 CNS = tested on: SNB-78 CNS
DMS 114 small cell lung = tested on: DMS 114 small cell lung
M19-MEL melanoma = tested on: M19-MEL melanoma
XF 498 CNS = tested on: XF 498 CNS
LXFL 529 NSCLC = tested on: LXFL 529 NSCLC
DLD-1 colon = tested on: DLD-1 colon
RXF-631 renal = tested on: RXF-631 renal
HOP-18 NSCLC = tested on: HOP-18 NSCLC
MDA-N = tested on: MDA-N
SN12K1 renal = tested on: SN12K1 renal
P388/ADR leukemia = tested on: P388/ADR leukemia
P388 leukemia = tested on: P388 leukemia

| SMILES | TGI (SNB-78 CNS) | TGI (DMS 114 small cell lung) | TGI (M19-MEL melanoma) | TGI (XF 498 CNS) | TGI (LXFL 529 NSCLC) [µM] | TGI (DLD-1 colon) | TGI (RXF-631 renal) [µM] | TGI (HOP-18 NSCLC) | further results |
| --- | --- | --- | --- | --- | --- | --- | --- | --- | --- |
| Cc1cccc(C)c1N1C(=O)C(=O)C(c2nc3ccccc3s2)/C(=N/NC(=O)c2ccccc2O)C1=O (stereo not given) | > 100 µM | 60.9 µM | > 100 µM | > 100 µM | > 100 | > 100 µM | > 100 | 88.6 µM |  |
| N#CC(C#N)=Cc1ccc(CP(=O)(O)O)cc1 | > 100 µM | > 100 µM | > 100 µM | > 100 µM | > 100 | > 100 µM | > 100 | > 100 µM |  |
| Cc1[nH]c(N)nc(=S)c1CCC(=O)O |  |  |  |  |  |  |  |  | TGI (MDA-N): > 100 µM |
| COc1ccc2c(c1)NC1(O)c3ccccc3C(=O)C21O (stereo not given) | > 100 µM | > 100 µM | > 100 µM | > 100 µM | > 100 | > 100 µM | > 100 | > 100 µM |  |
| O=S(=O)(N=NC=C1c2ccccc2N(O)c2ccccc21)c1ccc(Cl)cc1 | > 100 µM | > 100 µM | > 100 µM |  | > 100 | > 100 µM | > 100 | > 100 µM |  |
| CC1=NOC(=O)/C1=C/c1ccc([N+](=O)[O-])cc1 | > 100 µM | > 100 µM |  | > 100 µM |  | > 100 µM | > 100 | > 100 µM |  |
| NC(=O)c1cccc(OCC(O)CO)c1 (stereo not given) |  |  |  |  |  |  |  |  | TGI (MDA-N): > 100 µM |
| CC(C)(C)N/N=C(\C(=O)Nc1nc(=S)[nH][nH]1)C1C(=O)Nc2ccccc2S1=O (stereo not given) | > 100 µM | > 100 µM | > 100 µM | > 100 µM | > 100 | > 100 µM | > 100 | > 100 µM |  |
| CC(=O)NNc1nc(C)c(C(=O)/C=C/c2ccc(Cl)cc2)s1 | > 100 µM | > 100 µM | > 100 µM |  |  | > 100 µM |  | > 100 µM |  |
| CCCCc1c2cnccc2c(CCCC)c2c1[nH]c1ccccc12 | 77.8 µM | 18.3 µM | 24.9 µM | 13.3 µM | 25.6 | > 100 µM |  | 24.8 µM |  |
| Cc1nc(/C=C2\C(=O)C=Cc3ccccc32)c(O)o1 | > 100 µM | > 100 µM | > 100 µM |  | > 100 | > 100 µM |  | > 100 µM |  |
| Cc1c(Cl)cccc1NC(=O)/C=C/c1ccccc1 |  |  |  |  |  |  |  |  | TGI (MDA-N): > 100 µM |
| N/N=C(\c1nc2ccc(Cl)cc2[nH]c1=O)C(O)c1ccc(Cl)c(Cl)c1 (stereo not given) | > 100 µM | > 100 µM | > 100 µM | > 100 µM | > 100 | > 100 µM | > 100 |  |  |
| COc1ccc2c(c1OC)C(C(Cl)(Cl)Cl)N1CCc3cc4c(cc3C1=C2)OCO4 (stereo not given) |  |  |  |  |  |  |  |  | TGI (MDA-N): 41 µM |
| COc1cc2c(cc1OC)C1Cc3ccc(OC)c(OC)c3C[N+]1([O-])CC2 (stereo not given) | > 100 µM |  |  | > 100 µM | > 100 | > 100 µM |  |  |  |
| CC1CC(C)C2OC2(C)C[C@H](C)C(=O)NC(C)C(=O)N(C)[C@H](Cc2c(Br)[nH]c3ccccc23)C(=O)N[C@@H](c2ccc(O)cc2)CC(=O)O1 (stereo not given in full) | 0.763 µM | 2.63 µM |  | 4.31 µM | 13.3 | > 100 µM | > 100 |  |  |
| COc1ccc(C(=O)CC2=Nc3nnc(CCCCCCCc4nnc5n4C(=O)C(CC(=O)c4ccc(OC)cc4)=N5)n3C2=O)cc1 |  | > 100 µM | > 100 µM | > 100 µM | > 100 | > 100 µM | > 100 | > 100 µM |  |
| COc1cc(C(C)c2cc3c(cc2OCCNC(=O)COc2cc4c(cc2C(C)c2cc(OC)c(OC)c(OC)c2)OCO4)OCO3)cc(OC)c1OC (stereo not given) |  | > 100 µM | > 100 µM |  | > 100 | > 100 µM | > 100 |  |  |
| CCCN(CCC)C(=O)c1nc(N)nc(-c2ccc(OC)cc2)c1-c1ccc(OC)cc1 | > 100 µM | > 100 µM |  | > 100 µM | > 100 | > 100 µM | > 100 | > 100 µM |  |
| O=C1CNC(=O)c2[nH]cnc2N1 | > 100 µM | > 100 µM | > 100 µM | > 100 µM | > 100 | > 100 µM | > 100 | > 100 µM |  |

| SMILES | TGI (SNB-78 CNS) | TGI (DMS 114 small cell lung) | TGI (M19-MEL melanoma) | TGI (XF 498 CNS) | TGI (LXFL 529 NSCLC) [µM] | TGI (DLD-1 colon) | TGI (RXF-631 renal) [µM] | TGI (HOP-18 NSCLC) | further results |
| --- | --- | --- | --- | --- | --- | --- | --- | --- | --- |
| CCOc1ccc(NCC2CC/C(=C\c3ccccc3OC)C2=O)cc1 (stereo not given) | 44.3 µM | 28.2 µM | 26.3 µM |  | 6.5 | 13.6 µM | 42.5 | 28.8 µM |  |
| CCCCCCCC/C=C1\CCC(CN2CCOCC2)C1=O (stereo not given) | 31.8 µM | 20.7 µM | 26.3 µM | 27.5 µM | 9.2 | 8.03 µM | 64.8 | 25.8 µM | TGI (MDA-N): 22.4 µM |
| C/C(CC(=O)Nc1ccccc1C)=N/NS(=O)(=O)c1ccc(C)cc1 | > 100 µM |  | > 100 µM | > 100 µM | > 100 | > 100 µM | > 100 |  |  |
| Cc1ccc(S(=O)(=O)OC(COC(=O)c2ccccc2)C(OS(=O)(=O)c2ccc(C)cc2)C(OS(=O)(=O)c2ccc(C)cc2)C(COC(=O)c2ccccc2)OS(=O)(=O)c2ccc(C)cc2)cc1 (stereo not given) | > 100 µM |  | > 100 µM |  | > 100 |  |  |  |  |
| CC(C(=O)c1ccccc1)C1(O)C(=O)Nc2ccc(Cl)cc21 (stereo not given) | > 100 µM | > 100 µM | 31.6 µM | > 100 µM | > 100 | > 100 µM |  | > 100 µM |  |
| Cc1c(N)nc(C(CC(N)=O)NCC(N)C(N)=O)nc1C(=O)NC(C(=O)NC(C)C(O)C(C)C(=O)NC(C(=O)NCCc1nc(-c2nc(C(=O)NCCCNC(C)c3ccccc3)cs2)cs1)C(C)O)C(OC1OC(CO)C(O)C(O)C1OC1OC(CO)C(O)C(OC(N)=O)C1O)c1cnc[nH]1 (stereo not given) | > 50 µM | 8.75 µM | 50 µM | 50 µM | 50 | 50 µM |  | 46.8 µM | GI50 (MDA-N): > 100 µM; TGI (MDA-N): > 100 µM |
| COC(=O)C1CC(OC(C)=O)C=C2C(=O)CCC21 (stereo not given) | 72.8 µM | 30.8 µM | 59.9 µM |  | 39.3 | 40.7 µM | 86.8 | 64.3 µM |  |
| CCOC(=O)C1=C(C)N(NC(N)=O)C2(N)N(NC(N)=O)C(C)=C(C(=O)OCC)C12C(=O)OCC (stereo not given) |  | > 100 µM | > 100 µM | > 100 µM | > 100 | > 100 µM |  |  |  |
| COC1CCC(OC)C(C2(C3CC(OC)CCC3OC)OC(=O)c3ccccc32)C1 (stereo not given) | > 100 µM | > 100 µM |  | > 100 µM |  | > 100 µM | > 100 | > 100 µM |  |
| Cc1cc(C)c(C(=O)O)c(SSc2cc(C)cc(C)c2C(=O)O)c1 | > 100 µM | > 100 µM | > 100 µM | > 100 µM | > 100 | > 100 µM | > 100 |  |  |
| O=C(Nc1ccccc1-c1nn(CN2CCNCC2)c(=S)n(CN2CCNCC2)c1=O)C(F)(F)F | 62.4 µM | 34 µM | 32.1 µM |  |  | 33.3 µM | 46.8 | 63.9 µM |  |
| CO[C@H]1C[C@](C)(O)Cc2cc3c(c(O)c21)C(=O)c1c(O)cc2c(c1C3=O)O[C@@H]1O[C@@]2(C)[C@H](O)[C@@H](N(C)C)[C@@H]1O | 9.66 µM and 21.8 µM | 2.32 µM and 1.71 µM | 2.56 µM and 9.81 µM | 2.51 µM and 0.689 µM | 7.33 | 4.08 µM and 22.3 µM | 2.71 | 4.3 µM and 8.6 µM | GI50 (SNB-78 CNS): 5.05 µM; GI50 (DMS 114 small cell lung): 0.533 µM; TGI (SN12K1 renal): 2.15 µM; TGI (P388/ADR leukemia): 16.1 µM; GI50 (XF 498 CNS): 1.15 µM; GI50 (DLD-1 colon): 1.67 µM; TGI (MDA-N): 10.6 µM; TGI (P388 leukemia): 3.3 µM; GI50 (HOP-18 NSCLC): 1.29 µM |
| COC(=O)C(=O)C(C(=O)C(=O)Nc1ccccc1OC)c1nc2ccc([N+](=O)[O-])cc2[nH]c1=O (stereo not given) |  |  |  |  |  |  |  |  | TGI (MDA-N): > 100 µM |
| COc1ccc2oc(-c3ccc(OC)c(OC)c3OC)cc(=O)c2c1 |  | > 100 µM | > 100 µM | > 100 µM | > 100 | > 100 µM |  |  |  |
| CC(C)c1cccc(O)c(=O)c1 | > 100 µM | 16 µM | > 59.3 µM | > 100 µM | > 100 | > 100 µM | > 100 | > 100 µM |  |
| CCC1(OC(=O)CN)C(=O)OCc2c1cc1n(c2=O)Cc2cc3ccccc3nc2-1 (stereo not given) | > 100 µM | 0.461 µM and 1.02 µM | 0.237 µM | 0.431 µM | 6.06 | > 100 µM |  | 28.4 µM | GI50 (SNB-78 CNS): 0.53 µM; GI50 (M19-MEL melanoma): 0.0174 µM; GI50 (XF 498 CNS): 0.0328 µM; GI50 (LXFL 529 NSCLC): 0.135 µM; GI50 (MDA-N): 0.122 µM and 0.36 µM |
| CC1(C)OC(=O)C(C#N)=C1C[n+]1ccccc1 |  |  |  |  |  |  |  |  | TGI (MDA-N): > 10 µM |
| NCCNC(=O)c1cccc2cc3ccccc3nc12 | 37 µM | 6.66 µM | 5.34 µM | 6.04 µM | > 36.6 | 18.6 µM | 16.7 | > 40.9 µM |  |
| C=CCC1(C(=O)OC(C)(C)C)C(OC)=C(C(=O)OC(C)(C)C)C2C1C(C(=O)OC(C)(C)C)=C(OC)C2(CC=C)C(=O)OC(C)(C)C (stereo not given) |  | > 100 µM | > 100 µM | > 100 µM |  | > 100 µM |  | > 100 µM |  |
